Results from article PMC7827406, “Structure–Activity Relationship (SAR) Study of Spautin-1 to Entail the Discovery of Novel NEK4 Inhibitors” (International Journal of Molecular Sciences, 2021).
Where two headings read alike, the source gives them in different places.

Experiments:
Experiment in all cases: biochemical
Design in all cases: Eurofins KinaseProfiler full panel at Km ATP, residual kinase activity (%) relative to DMSO
eEF-2K(h) = molecular target: T1, eEF-2K(h) (Homo sapiens, UniProt O00418)
T1 construct: gene EEF2K
T1 sequence (O00418 1-725): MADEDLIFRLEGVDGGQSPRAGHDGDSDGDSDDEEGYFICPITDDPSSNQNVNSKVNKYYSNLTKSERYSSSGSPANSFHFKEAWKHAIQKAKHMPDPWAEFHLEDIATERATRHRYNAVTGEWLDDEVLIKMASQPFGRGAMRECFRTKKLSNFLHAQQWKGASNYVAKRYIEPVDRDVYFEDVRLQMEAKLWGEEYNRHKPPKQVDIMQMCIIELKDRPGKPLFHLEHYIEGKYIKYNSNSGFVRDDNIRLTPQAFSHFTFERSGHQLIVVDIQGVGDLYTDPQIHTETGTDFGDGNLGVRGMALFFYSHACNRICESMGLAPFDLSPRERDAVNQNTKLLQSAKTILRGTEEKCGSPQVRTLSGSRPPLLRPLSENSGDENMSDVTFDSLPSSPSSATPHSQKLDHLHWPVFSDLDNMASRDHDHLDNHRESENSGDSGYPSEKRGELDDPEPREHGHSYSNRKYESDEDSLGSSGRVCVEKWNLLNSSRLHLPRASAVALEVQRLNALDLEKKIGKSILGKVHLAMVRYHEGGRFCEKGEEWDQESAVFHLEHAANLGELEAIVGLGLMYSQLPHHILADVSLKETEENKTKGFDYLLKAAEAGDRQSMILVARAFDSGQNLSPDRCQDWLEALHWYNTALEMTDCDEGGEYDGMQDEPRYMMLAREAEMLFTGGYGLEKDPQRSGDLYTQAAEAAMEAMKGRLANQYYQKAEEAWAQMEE
Method in brief: (§1)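 Radiometric kinase activity assays were run with ATP at Km and compounds at 10 µM, and remaining activity (%) was reported. A separate competitive binding screen measured DNA-tagged kinase displaced from immobilized active-site ligands by qPCR, giving percent kinase still bound at 10 µM compound in DMSO.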

CDK18/cyclinY(h) = CDK18/cyclinY(h) (Homo sapiens, UniProt Q07002)
Method in brief: as §1

PhKγ1(h) = molecular target: T2, PhKγ1(h) (Homo sapiens, UniProt Q16816)
T2 construct: gene PHKG1
Method in brief: as §1

MAPKAP-K3(h) = molecular target: T3, MAPKAP-K3(h) (Homo sapiens, UniProt Q16644)
T3 construct: gene MAPKAPK3
Method in brief: as §1

IRAK4(h) = molecular target: T4, IRAK4(h) (Homo sapiens, UniProt Q9NWZ3)
T4 sequence (Q9NWZ3 1-460): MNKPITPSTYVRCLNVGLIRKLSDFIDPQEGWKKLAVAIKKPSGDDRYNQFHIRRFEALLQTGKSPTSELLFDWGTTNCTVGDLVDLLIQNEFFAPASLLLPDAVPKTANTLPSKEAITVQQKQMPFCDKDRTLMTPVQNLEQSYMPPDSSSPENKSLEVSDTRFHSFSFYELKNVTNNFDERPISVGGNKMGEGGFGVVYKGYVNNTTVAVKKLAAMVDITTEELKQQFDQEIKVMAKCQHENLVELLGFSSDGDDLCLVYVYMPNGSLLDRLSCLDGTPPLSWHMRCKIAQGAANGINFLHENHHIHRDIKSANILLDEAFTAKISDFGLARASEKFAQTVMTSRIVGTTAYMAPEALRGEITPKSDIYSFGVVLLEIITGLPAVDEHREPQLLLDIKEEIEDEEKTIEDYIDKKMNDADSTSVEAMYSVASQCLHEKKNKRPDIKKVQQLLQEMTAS
Method in brief: as §1

TYK2(h) = TYK2(h) (Homo sapiens, UniProt P29597)
Method in brief: as §1

CK1α(h) = molecular target: T5, CK1α(h) (Homo sapiens, UniProt P48729)
T5 construct: gene CSNK1A1
Method in brief: as §1

NDR1(h) = molecular target: T6, NDR1(h) (Homo sapiens, UniProt Q15208)
T6 construct: gene STK38
Method in brief: as §1

[1] = read-out: Residual activity (%) Spautin-1 5aa
[2] = read-out: Residual activity (%) 5as
[3] = read-out: Residual activity (%) 5at
[4] = read-out: Residual activity (%) 5ay

T3 sequence (Q16644 whole entry): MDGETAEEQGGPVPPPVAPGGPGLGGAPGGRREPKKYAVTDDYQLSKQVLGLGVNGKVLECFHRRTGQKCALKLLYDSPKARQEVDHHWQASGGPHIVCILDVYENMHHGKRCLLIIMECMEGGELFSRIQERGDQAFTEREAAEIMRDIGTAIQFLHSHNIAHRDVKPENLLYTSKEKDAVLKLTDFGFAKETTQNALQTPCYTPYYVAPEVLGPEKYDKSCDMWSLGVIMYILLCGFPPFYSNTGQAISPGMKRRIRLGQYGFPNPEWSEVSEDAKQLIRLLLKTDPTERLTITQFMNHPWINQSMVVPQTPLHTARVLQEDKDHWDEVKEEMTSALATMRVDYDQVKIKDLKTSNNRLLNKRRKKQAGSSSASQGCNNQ
T2 sequence (Q16816 whole entry): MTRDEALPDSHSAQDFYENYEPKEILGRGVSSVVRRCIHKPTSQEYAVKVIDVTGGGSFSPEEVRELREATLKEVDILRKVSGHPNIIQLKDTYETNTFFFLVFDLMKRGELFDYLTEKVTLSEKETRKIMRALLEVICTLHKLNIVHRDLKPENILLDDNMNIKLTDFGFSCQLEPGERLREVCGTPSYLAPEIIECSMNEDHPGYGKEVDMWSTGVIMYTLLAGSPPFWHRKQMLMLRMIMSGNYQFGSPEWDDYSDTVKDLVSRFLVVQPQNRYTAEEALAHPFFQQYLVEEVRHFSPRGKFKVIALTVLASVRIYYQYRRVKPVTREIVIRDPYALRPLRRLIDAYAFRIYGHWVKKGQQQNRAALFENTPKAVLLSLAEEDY
Chain of CDK18/cyclinY(h) (Q07002 whole entry): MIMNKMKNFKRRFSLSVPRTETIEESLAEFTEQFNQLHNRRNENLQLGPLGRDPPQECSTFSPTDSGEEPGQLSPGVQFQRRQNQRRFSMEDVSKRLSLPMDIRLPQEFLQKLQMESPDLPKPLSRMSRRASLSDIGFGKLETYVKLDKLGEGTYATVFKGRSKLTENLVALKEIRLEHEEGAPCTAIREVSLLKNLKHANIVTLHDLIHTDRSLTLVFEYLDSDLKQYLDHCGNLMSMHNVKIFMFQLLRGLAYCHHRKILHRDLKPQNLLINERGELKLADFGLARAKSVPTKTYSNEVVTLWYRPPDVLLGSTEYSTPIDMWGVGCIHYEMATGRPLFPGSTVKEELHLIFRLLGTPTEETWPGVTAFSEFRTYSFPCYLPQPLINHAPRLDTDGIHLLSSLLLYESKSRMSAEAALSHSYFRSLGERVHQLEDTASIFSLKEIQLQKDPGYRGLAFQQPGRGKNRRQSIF
Chain of CDK18/cyclinY(h) (Q8ND76 whole entry partner): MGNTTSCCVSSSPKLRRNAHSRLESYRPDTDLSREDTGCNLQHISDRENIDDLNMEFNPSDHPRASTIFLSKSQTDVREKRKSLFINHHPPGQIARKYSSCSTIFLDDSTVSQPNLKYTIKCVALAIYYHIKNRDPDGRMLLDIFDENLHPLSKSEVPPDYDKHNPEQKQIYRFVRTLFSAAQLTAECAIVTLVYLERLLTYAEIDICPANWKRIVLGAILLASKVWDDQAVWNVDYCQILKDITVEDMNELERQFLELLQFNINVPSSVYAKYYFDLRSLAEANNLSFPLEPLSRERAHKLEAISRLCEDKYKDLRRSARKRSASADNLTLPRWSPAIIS
T6 sequence (Q15208 whole entry): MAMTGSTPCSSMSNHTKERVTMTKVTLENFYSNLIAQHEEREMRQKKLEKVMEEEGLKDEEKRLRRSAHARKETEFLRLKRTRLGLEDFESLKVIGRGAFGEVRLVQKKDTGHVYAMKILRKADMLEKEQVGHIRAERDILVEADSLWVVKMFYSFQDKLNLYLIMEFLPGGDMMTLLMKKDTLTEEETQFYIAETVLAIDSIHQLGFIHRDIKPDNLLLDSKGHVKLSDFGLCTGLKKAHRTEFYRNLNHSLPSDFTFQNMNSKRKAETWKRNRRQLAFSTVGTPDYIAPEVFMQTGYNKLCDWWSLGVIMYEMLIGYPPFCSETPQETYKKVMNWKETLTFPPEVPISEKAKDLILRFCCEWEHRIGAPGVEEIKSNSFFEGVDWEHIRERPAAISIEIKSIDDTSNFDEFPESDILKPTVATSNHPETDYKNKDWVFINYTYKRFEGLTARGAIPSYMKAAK
Chain of TYK2(h) (P29597 whole entry): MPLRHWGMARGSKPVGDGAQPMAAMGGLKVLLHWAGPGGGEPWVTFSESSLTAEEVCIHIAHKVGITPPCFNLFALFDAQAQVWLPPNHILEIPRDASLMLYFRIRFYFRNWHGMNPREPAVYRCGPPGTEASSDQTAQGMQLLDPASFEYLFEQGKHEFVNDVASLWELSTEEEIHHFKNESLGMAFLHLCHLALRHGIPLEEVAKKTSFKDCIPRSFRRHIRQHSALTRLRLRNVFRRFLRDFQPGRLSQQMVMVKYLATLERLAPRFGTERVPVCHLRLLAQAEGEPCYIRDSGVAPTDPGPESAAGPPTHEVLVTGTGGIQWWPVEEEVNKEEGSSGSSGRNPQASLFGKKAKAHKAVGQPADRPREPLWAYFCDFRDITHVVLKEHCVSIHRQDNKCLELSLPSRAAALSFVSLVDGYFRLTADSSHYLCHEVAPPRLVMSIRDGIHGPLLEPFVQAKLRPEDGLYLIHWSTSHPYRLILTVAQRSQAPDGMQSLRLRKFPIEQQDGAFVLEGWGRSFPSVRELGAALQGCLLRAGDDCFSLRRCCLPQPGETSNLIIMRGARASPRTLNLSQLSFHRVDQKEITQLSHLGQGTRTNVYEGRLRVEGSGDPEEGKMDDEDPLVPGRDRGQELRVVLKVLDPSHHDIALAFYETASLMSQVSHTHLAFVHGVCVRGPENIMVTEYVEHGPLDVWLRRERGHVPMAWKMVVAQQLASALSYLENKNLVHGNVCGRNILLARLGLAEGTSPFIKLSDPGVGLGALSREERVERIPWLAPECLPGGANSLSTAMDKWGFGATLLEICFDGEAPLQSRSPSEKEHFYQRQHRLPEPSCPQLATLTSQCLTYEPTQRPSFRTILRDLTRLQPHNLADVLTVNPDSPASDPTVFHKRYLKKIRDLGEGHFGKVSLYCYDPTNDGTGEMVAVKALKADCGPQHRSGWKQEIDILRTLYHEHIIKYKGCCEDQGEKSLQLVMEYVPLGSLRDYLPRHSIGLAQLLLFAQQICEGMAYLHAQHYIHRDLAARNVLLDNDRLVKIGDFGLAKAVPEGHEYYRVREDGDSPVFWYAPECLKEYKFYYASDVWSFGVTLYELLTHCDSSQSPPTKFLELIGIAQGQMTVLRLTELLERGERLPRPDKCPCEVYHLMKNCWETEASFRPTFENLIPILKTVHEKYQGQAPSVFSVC
T5 sequence (P48729 whole entry): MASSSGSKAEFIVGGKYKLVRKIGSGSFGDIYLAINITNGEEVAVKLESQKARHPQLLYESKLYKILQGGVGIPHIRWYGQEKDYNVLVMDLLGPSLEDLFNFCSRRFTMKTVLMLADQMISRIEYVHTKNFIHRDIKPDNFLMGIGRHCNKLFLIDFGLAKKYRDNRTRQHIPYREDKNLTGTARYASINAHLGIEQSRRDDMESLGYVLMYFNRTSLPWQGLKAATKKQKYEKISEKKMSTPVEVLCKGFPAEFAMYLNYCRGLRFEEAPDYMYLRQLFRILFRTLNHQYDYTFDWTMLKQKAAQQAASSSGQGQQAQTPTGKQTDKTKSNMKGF

Fc1ccc(CNc2ncnc3ccc(F)cc23)cc1 [5aa, 6-Fluoro-N-(4-fluorobenzyl)-4-Quinazolinamine]
remaining activity at 10 µM (eEF-2K(h); [1]): 87% | remaining activity at 10 µM (CDK18/cyclinY(h); [1]): 87% | remaining activity at 10 µM (PhKγ1(h); [1]): 102% | remaining activity at 10 µM (MAPKAP-K3(h); [1]): 95% | remaining activity at 10 µM (IRAK4(h); [1]): 96% | remaining activity at 10 µM (TYK2(h); [1]): 109% | remaining activity at 10 µM (CK1α(h); [1]): 76% | remaining activity at 10 µM (NDR1(h); [1]): 108%

Fc1ccc(CCNc2ncnc3ccc(F)cc23)cc1 [5as, 6-Fluoro-N-[2-(4-Fluorophenyl)Ethyl]-4-Quinazolinamine]
remaining activity at 10 µM (eEF-2K(h); [2]): 85% | remaining activity at 10 µM (CDK18/cyclinY(h); [2]): 102% | remaining activity at 10 µM (PhKγ1(h); [2]): 120% | remaining activity at 10 µM (MAPKAP-K3(h); [2]): 66% | remaining activity at 10 µM (IRAK4(h); [2]): 92% | remaining activity at 10 µM (TYK2(h); [2]): 86% | remaining activity at 10 µM (CK1α(h); [2]): 98% | remaining activity at 10 µM (NDR1(h); [2]): 96%

Fc1ccc2ncnc(NCCc3ccc(Cl)cc3)c2c1 [5at, N-[2-(4-Chlorophenyl)Ethyl]-6-Fluoro-4-Quinazolinamine]
remaining activity at 10 µM (eEF-2K(h); [3]): 85% | remaining activity at 10 µM (CDK18/cyclinY(h); [3]): 116% | remaining activity at 10 µM (PhKγ1(h); [3]): 141% | remaining activity at 10 µM (MAPKAP-K3(h); [3]): 83% | remaining activity at 10 µM (IRAK4(h); [3]): 103% | remaining activity at 10 µM (TYK2(h); [3]): 84% | remaining activity at 10 µM (CK1α(h); [3]): 89% | remaining activity at 10 µM (NDR1(h); [3]): 89%

COc1ccc2ncnc(Nc3cccc(F)c3)c2c1 [5ay, N-(3-Fluorophenyl)-6-Methoxy-4-Quinazolinamine]
remaining activity at 10 µM (eEF-2K(h); [4]): 79% | remaining activity at 10 µM (CDK18/cyclinY(h); [4]): 86% | remaining activity at 10 µM (PhKγ1(h); [4]): 121% | remaining activity at 10 µM (MAPKAP-K3(h); [4]): 78% | remaining activity at 10 µM (IRAK4(h); [4]): 60% | remaining activity at 10 µM (TYK2(h); [4]): 75% | remaining activity at 10 µM (CK1α(h); [4]): 100% | remaining activity at 10 µM (NDR1(h); [4]): 98%
